{"source": "patent US9617577B2", "about": "“Bacillus pumilus bilirubin oxidase and applications thereof” (CENTRE NATIONAL DE LA RECHERCHE SCIENTIFIQUE, priority 2010, dated 2017)", "key": {"[1]": {"biological_target": "T1, Bacillus pumilus bilirubin oxidase (BOD), wild type, strain SAFR-032, SEQ ID No. 2 (C-terminal 6xHis tag) (Bacillus pumilus, UniProt A8FAG9)", "T1 sequence (A8FAG9 with tags, fused parts or gaps)": "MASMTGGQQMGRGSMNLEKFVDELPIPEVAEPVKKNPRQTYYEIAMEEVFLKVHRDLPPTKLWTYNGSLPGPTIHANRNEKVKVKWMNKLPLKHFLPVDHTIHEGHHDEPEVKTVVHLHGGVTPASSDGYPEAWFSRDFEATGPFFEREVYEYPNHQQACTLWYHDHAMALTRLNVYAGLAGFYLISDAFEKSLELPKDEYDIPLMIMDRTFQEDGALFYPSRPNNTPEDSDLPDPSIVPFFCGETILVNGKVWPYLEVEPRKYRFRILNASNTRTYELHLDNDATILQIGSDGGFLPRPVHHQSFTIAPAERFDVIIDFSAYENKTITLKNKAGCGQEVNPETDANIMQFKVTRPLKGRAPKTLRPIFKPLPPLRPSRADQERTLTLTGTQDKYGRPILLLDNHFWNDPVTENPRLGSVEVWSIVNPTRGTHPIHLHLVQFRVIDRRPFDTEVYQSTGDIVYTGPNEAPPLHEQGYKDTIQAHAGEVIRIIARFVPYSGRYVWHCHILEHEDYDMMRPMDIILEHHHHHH", "test": "Steady-state kinetics of 2,6-dimethoxyphenol (DMP) oxidation by B. pumilus BOD", "details": "37° C., 50 mM sodium phosphate buffer, pH 6.8", "quoted_text": "(§3) The experiments are carried out at 37° C. on a Varian spectrophotometer in a 50 mM sodium phosphate buffer, pH 6.8. The 2,6-dimethoxyphenol concentration varies in the test from 0 to 4000 μM. The test, triggered by adding the enzyme, consists in following the oxidation of the DMP at 468 nm by coloroimetric change (ε468nm=14.8 mM^−1 cm^−1)."}, "[2]": {"biological_target": "T1, Bacillus pumilus bilirubin oxidase (BOD), wild type, strain SAFR-032, SEQ ID No. 2 (C-terminal 6xHis tag)", "test": "Activity (SGZ oxidation) as a function of the presence of DTT or of EDTA", "assay_type": "biochemical", "details": "50 μM SGZ, 37° C., pH 6.2, read-out: Relative activity", "experimental": "(§1) The concentration of SGZ, diluted in methanol, is fixed in the test at 50 μM. […] Table III below collates the results obtained, presented in relative activity form."}, "[3]": {"system": "Bacillus pumilus BOD", "test": "Activity as a function of the presence of DTT or EDTA (SGZ oxidation)", "assay_type": "biochemical", "details": "SGZ 50 μM, 37° C., pH 6.2", "experimental": "as §1"}, "[4]": {"biological_target": "T1, Bacillus pumilus bilirubin oxidase (BOD), wild type, strain SAFR-032, SEQ ID No. 2 (C-terminal 6xHis tag)", "test": "Steady-state kinetics of syringaldazine (SGZ) oxidation by B. pumilus BOD", "assay_type": "biochemical", "details": "37° C., 50 mM citrate/phosphate buffer, pH 6.2; model with competitive inhibition; in 1/s", "experimental": "(§2) The SGZ concentration, diluted in methanol, varies in the test from 0 to 300 μM."}, "[5]": {"system": "Bacillus pumilus BOD", "test": "Activity as a function of the presence of urea (ABTS oxidation)", "details": "urea 0 to 6 M, 100 mM citrate/phosphate buffer, pH 3", "quoted_text": "The experiments are carried out at 37° C. on a Varian spectrophotometer in a 0.1 M citrate/phosphate buffer, pH 3. […] The test is triggered by adding enzyme."}, "[6]": {"biological_target": "T1, Bacillus pumilus bilirubin oxidase (BOD), wild type, strain SAFR-032, SEQ ID No. 2 (C-terminal 6xHis tag)", "test": "Steady-state kinetics of conjugated bilirubin oxidation by B. pumilus BOD", "assay_type": "biochemical", "details": "37° C., 50 mM sodium phosphate buffer, pH 4.8"}, "[7]": {"substrate": "COc1cccc(OC)c1O", "test": "purified protein, by the assay type", "details": "other: 37° C., 50 mM sodium phosphate buffer, pH 6.8", "quoted_text": "as §3"}, "[8]": {"substrate": "C=CC1=C(C)/C(=C/c2[nH]c(Cc3[nH]c(/C=C4\\NC(=O)C(C)=C4C=C)c(C)c3CCC(=O)O)c(CCC(=O)O)c2C)NC1=O", "test": "Steady-state kinetics of unconjugated bilirubin oxidation by B. pumilus BOD", "assay_type": "biochemical, Bacillus pumilus", "details": "other: 37° C., 50 mM sodium phosphate buffer, pH 7"}, "[9]": {"substrate": "COc1cc(/C=N/N=C/c2cc(OC)c(O)c(OC)c2)cc(OC)c1O", "test": "Steady-state kinetics of syringaldazine (SGZ) oxidation by B. pumilus BOD", "assay_type": "biochemical, Bacillus pumilus", "details": "other: 37° C., 50 mM citrate/phosphate buffer, pH 6.2, model with competitive inhibition", "experimental": "as §2"}, "[10]": {"test": "Specific activity for ABTS", "assay_type": "biochemical", "details": "BOD according to the invention", "experimental": "The enzyme is diluted so as to measure a slope between 0.05 and 0.3 OD420nm/min."}, "[11]": {"test": "Stability of the enzyme as a function of temperature", "assay_type": "physicochemical", "details": "incubation at 80° C., residual activity on ABTS", "experimental": "The enzyme is preincubated at a concentration of 10 mg/ml in a dry bath at 80° C. […] The test is triggered by adding enzyme."}, "[12]": {"test": "Remazol Brilliant Blue R (RBBR) discoloration activity", "assay_type": "biochemical", "details": "RBBR 80 mg.l^−1, 37° C., 50 mM potassium phosphate buffer, pH 6, absence or presence of 10 μM ABTS", "experimental": "The RBBR concentration is fixed at 80 mg.l^−1 in each tank. The test, triggered by adding 10 μg of enzyme, consists in following, over time, the discoloration of the RBBR dye at 593 nm."}}, "data": [{"molecule": "COc1cccc(OC)c1O", "note": "[DMP, 2,6-Dimethoxyphenol]", "values": [{"measurement": "kss", "setting": "[1]", "result": 57.3, "unit": "s⁻¹"}]}, {"molecule": "OC(CS)C(O)CS", "note": "(centres unmarked) [DTT]", "values": [{"measurement": "activity at 1 µM", "setting": "[2]; DTT 0.001 mM", "result": "99 ± 4", "unit": "%"}, {"measurement": "activity at 5 µM", "setting": "[2]; DTT 0.005 mM", "result": "93 ± 2", "unit": "%"}, {"measurement": "activity at 10 µM", "setting": "[2]; DTT 0.01 mM", "result": "93 ± 4", "unit": "%"}, {"measurement": "activity at 15 µM", "setting": "[2]; DTT 0.015 mM", "result": "94 ± 3", "unit": "%"}, {"measurement": "activity at 30 µM", "setting": "[2]; DTT 0.03 mM", "result": "85 ± 1", "unit": "%"}, {"measurement": "activity at 50 µM", "setting": "[2]; DTT 0.05 mM", "result": "81 ± 4", "unit": "%"}]}, {"molecule": "O[C@@H](CS)[C@@H](O)CS", "note": "[DTT]", "values": [{"measurement": "Relative activity (%)", "setting": "[3]; DTT 0.001 mM", "result": "99 ± 4", "unit": "%"}, {"measurement": "Relative activity (%)", "setting": "[3]; DTT 0.005 mM", "result": "93 ± 2", "unit": "%"}, {"measurement": "Relative activity (%)", "setting": "[3]; DTT 0.01 mM", "result": "93 ± 4", "unit": "%"}, {"measurement": "Relative activity (%)", "setting": "[3]; DTT 0.015 mM", "result": "94 ± 3", "unit": "%"}, {"measurement": "Relative activity (%)", "setting": "[3]; DTT 0.03 mM", "result": "85 ± 1", "unit": "%"}, {"measurement": "Relative activity (%)", "setting": "[3]; DTT 0.05 mM", "result": "81 ± 4", "unit": "%"}]}, {"molecule": "O=C(O)CN(CCN(CC(=O)O)CC(=O)O)CC(=O)O", "note": "[EDTA]", "values": [{"measurement": "Relative activity (%)", "setting": "[3]; EDTA 0.1 mM", "result": "97 ± 1", "unit": "%"}, {"measurement": "Relative activity (%)", "setting": "[3]; EDTA 1 mM", "result": "99 ± 5", "unit": "%"}, {"measurement": "Relative activity (%)", "setting": "[3]; EDTA 10 mM", "result": "95 ± 1", "unit": "%"}, {"measurement": "Relative activity (%)", "setting": "[3]; EDTA 25 mM", "result": "98 ± 3", "unit": "%"}, {"measurement": "Relative activity (%)", "setting": "[3]; EDTA 50 mM", "result": "99 ± 4", "unit": "%"}, {"measurement": "Relative activity (%)", "setting": "[3]; EDTA 75 mM", "result": "95 ± 2", "unit": "%"}, {"measurement": "Relative activity (%)", "setting": "[3]; EDTA 100 mM", "result": "95 ± 1", "unit": "%"}, {"measurement": "Relative activity (%)", "setting": "[3]; EDTA 125 mM", "result": "89 ± 3", "unit": "%"}, {"measurement": "activity at 100 µM", "setting": "[2]; EDTA 0.1 mM", "result": "97 ± 1", "unit": "%"}, {"measurement": "activity at 1000 µM", "setting": "[2]; EDTA 1 mM", "result": "99 ± 5", "unit": "%"}, {"measurement": "activity at 10000 µM", "setting": "[2]; EDTA 10 mM", "result": "95 ± 1", "unit": "%"}, {"measurement": "activity at 25000 µM", "setting": "[2]; EDTA 25 mM", "result": "98 ± 3", "unit": "%"}, {"measurement": "activity at 50000 µM", "setting": "[2]; EDTA 50 mM", "result": "99 ± 4", "unit": "%"}, {"measurement": "activity at 75000 µM", "setting": "[2]; EDTA 75 mM", "result": "95 ± 2", "unit": "%"}, {"measurement": "activity at 100000 µM", "setting": "[2]; EDTA 100 mM", "result": "95 ± 1", "unit": "%"}, {"measurement": "activity at 125000 µM", "setting": "[2]; EDTA 125 mM", "result": "89 ± 3", "unit": "%"}]}, {"molecule": "COc1cc(/C=N/N=C/c2cc(OC)c(O)c(OC)c2)cc(OC)c1O", "note": "[SGZ, Syringaldazine]", "values": [{"measurement": "kcat", "setting": "[4]", "result": 116.1}]}, {"molecule": "NC(N)=O", "note": "[urea]", "values": [{"measurement": "effect of urea on BOD activity (ABTS oxidation)", "setting": "[5]; 25° C.", "result": "activating effect"}, {"measurement": "effect of urea on BOD activity (ABTS oxidation)", "setting": "[5]; 37° C.", "result": "not found"}]}, {"molecule": "conjugated bilirubin", "values": [{"measurement": "Km", "setting": "[6]", "result": 35.1, "unit": "µM"}, {"measurement": "kcat", "setting": "[6]", "result": 66.8, "unit": "s⁻¹"}]}, {"molecule": "Bacillus pumilus bilirubin oxidase (BOD), wild type, strain SAFR-032, SEQ ID No. 2 (C-terminal 6xHis tag) (Bacillus pumilus SAFR-032) (protein) MASMTGGQQMGRGSMNLEKFVDELPIPEVAEPVKKNPRQTYYEIAMEEVFLKVHRDLPPTKLWTYNGSLPGPTIHANRNEKVKVKWMNKLPLKHFLPVDHTIHEGHHDEPEVKTVVHLHGGVTPASSDGYPEAWFSRDFEATGPFFEREVYEYPNHQQACTLWYHDHAMALTRLNVYAGLAGFYLISDAFEKSLELPKDEYDIPLMIMDRTFQEDGALFYPSRPNNTPEDSDLPDPSIVPFFCGETILVNGKVWPYLEVEPRKYRFRILNASNTRTYELHLDNDATILQIGSDGGFLPRPVHHQSFTIAPAERFDVIIDFSAYENKTITLKNKAGCGQEVNPETDANIMQFKVTRPLKGRAPKTLRPIFKPLPPLRPSRADQERTLTLTGTQDKYGRPILLLDNHFWNDPVTENPRLGSVEVWSIVNPTRGTHPIHLHLVQFRVIDRRPFDTEVYQSTGDIVYTGPNEAPPLHEQGYKDTIQAHAGEVIRIIARFVPYSGRYVWHCHILEHEDYDMMRPMDIILEHHHHHH", "values": [{"measurement": "Km", "setting": "[7]", "result": 822, "unit": "µM"}, {"measurement": "Km", "setting": "[8]", "result": 22, "unit": "µM"}, {"measurement": "kcat", "setting": "[8]", "result": 70, "unit": "s⁻¹"}, {"measurement": "Km", "setting": "[9]", "result": 45.6, "unit": "µM"}]}, {"molecule": "Bacillus pumilus BOD: wild-type bilirubin oxidase of Bacillus pumilus strain SAFR032, SEQ ID No. 2, produced in E. coli with C-terminal 6HIS tag (protein, listed as Bacillus pumilus, C-terminal 6His tag) MASMTGGQQMGRGSMNLEKFVDELPIPEVAEPVKKNPRQTYYEIAMEEVFLKVHRDLPPTKLWTYNGSLPGPTIHANRNEKVKVKWMNKLPLKHFLPVDHTIHEGHHDEPEVKTVVHLHGGVTPASSDGYPEAWFSRDFEATGPFFEREVYEYPNHQQACTLWYHDHAMALTRLNVYAGLAGFYLISDAFEKSLELPKDEYDIPLMIMDRTFQEDGALFYPSRPNNTPEDSDLPDPSIVPFFCGETILVNGKVWPYLEVEPRKYRFRILNASNTRTYELHLDNDATILQIGSDGGFLPRPVHHQSFTIAPAERFDVIIDFSAYENKTITLKNKAGCGQEVNPETDANIMQFKVTRPLKGRAPKTLRPIFKPLPPLRPSRADQERTLTLTGTQDKYGRPILLLDNHFWNDPVTENPRLGSVEVWSIVNPTRGTHPIHLHLVQFRVIDRRPFDTEVYQSTGDIVYTGPNEAPPLHEQGYKDTIQAHAGEVIRIIARFVPYSGRYVWHCHILEHEDYDMMRPMDIILEHHHHHH", "values": [{"measurement": "specific activity for ABTS", "setting": "[10]", "result": 375, "unit": "U/mg"}, {"measurement": "heat stability", "setting": "[11]", "result": "very good heat stability"}, {"measurement": "discolouring activity on dyes used in the textile industry", "setting": "[12]", "result": "discolouring activity"}]}]}
